Legend:
[1] = target: T1, full-length hPPARγ (Homo sapiens, UniProt P37231); assay: PPARγ-activated luciferase reporter (transactivation) assay in Cos-7 cells; type: cell-based; settings: at 33 μM and 100 μM
T1 construct: 50 ng of full-length hPPARγ plasmids; expressed in transfected cells; host or cells: Cos-7 cells (ATCC)
T1 sequence (P37231 1-505): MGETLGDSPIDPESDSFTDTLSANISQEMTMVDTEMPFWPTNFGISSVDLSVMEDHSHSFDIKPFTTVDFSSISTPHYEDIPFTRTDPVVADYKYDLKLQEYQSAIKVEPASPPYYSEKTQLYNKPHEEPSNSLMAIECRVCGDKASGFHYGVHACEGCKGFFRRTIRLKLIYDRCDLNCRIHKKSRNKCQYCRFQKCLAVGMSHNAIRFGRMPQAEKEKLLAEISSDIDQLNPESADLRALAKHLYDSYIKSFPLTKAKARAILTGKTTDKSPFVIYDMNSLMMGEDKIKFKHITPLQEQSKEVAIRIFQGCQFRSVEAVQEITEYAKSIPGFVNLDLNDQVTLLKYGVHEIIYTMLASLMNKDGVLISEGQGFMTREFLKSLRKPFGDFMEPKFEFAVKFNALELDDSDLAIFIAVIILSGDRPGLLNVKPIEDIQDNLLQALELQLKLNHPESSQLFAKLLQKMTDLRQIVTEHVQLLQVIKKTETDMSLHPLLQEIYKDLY
Experimental: Fig. 3 Luciferase reporter assay of PPARγ activation in Cos-7 cells. The luciferase activity was normalized against renilla luciferase units. Fold activation was calculated against DMSO with no ligand treatment. […] Concentration is represented as log10 scale (n = 3, error bars = SEM). […]
and 25 mM of imidazole) per 6 liters of cells, and passed three times through a French press with pressure set at […]. The lysate was cleared by centrifugation at 48,000 x g for 30 minutes and the supernatant was purified by loading on 2x5 mL HiLoad Nickel HP columns (GE Healthcare). The 6×His SUMO tag was removed by cleavage with the Sumo protease Ulp1 at a protease: protein ratio of 1:1000), and the tag was separated from the PPARγ LBD by a second pass through the Nickel column. PPARγ monomer was further purified by gel filtration (HiLoad 26/60 Superdex 200 (GE Healthcare)) with 20 mM of Tris (pH 8.0), 100 mM of NaCl, and 5 mM of DTT as buffer. The PPARγ LBD protein was complexed with PGC1α1 peptide […]
([…]) at a 1:1.2 molar ratio and with compound at a 1:5 molar ratio and then filter-concentrated to 10 mg/mL.
Cell-based transactivation assay […]
Excitation of the terbium at 340 nm results in FRET to the fluorescent tracer, with emissions detected at 520 nm and 495 nm. […]
The inhibition constant (ki) for a competitor was calculated by applying the […]

[2] = tested on: 3T3-L1 cells; assay: 3T3-L1 adipocyte differentiation assay (Oil Red O staining); type: cell-based, mouse
Experimental: One of the best documented side-effects of the PPARγ agonist drugs is weight gain as PPARγ is the key activator of adipogenesis. To determine whether VSP-77 promotes adipogenesis, we treated mouse fibroblast 3T3-L1 cells with 100 μM of VSP-77. […] Cells were incubated with Oil Red O, which stains adipocytes red.
Fig. 6 3T3-L1 adipocyte differentiation assay. Oil Red O staining of 3T3-L1 fibroblast cells after differentiating with different ligands for 2 days. […]
Adipocyte differentiation assay
The adipocyte differentiation assay was performed with NIH 3T3-L1 preadipocytes obtained from ATCC. The 3T3-L1 preadipocytes were maintained in DMEM containing 10% FBS and antibiotics. For differentiation DMI (Dexamethazone 1 μM, 3-isobutyl-1-methyxanthine (IBMX) 0.5 mM and Insulin167 nM) and 10 μM of rosiglitazone were used as positive controls for the assay. VSP-77 was used at a 100 μM concentration. All the treatments have insulin at 167 nM concentration. Media with DMSO was used as a negative control. Differentiation was induced by treating post-confluent cultures with media containing the respective ligands for two days.
Cells were stained with Oil Red O to estimate the lipid accumulation. The images were analyzed using ImageJ (National Institutes of Health). […]

[3] = target: T2, PPARδ (Homo sapiens, UniProt Q03181); assay: Competitive TR-FRET assay, PPARδ; settings: even at 100 μM
T2 sequence (Q03181 1-441): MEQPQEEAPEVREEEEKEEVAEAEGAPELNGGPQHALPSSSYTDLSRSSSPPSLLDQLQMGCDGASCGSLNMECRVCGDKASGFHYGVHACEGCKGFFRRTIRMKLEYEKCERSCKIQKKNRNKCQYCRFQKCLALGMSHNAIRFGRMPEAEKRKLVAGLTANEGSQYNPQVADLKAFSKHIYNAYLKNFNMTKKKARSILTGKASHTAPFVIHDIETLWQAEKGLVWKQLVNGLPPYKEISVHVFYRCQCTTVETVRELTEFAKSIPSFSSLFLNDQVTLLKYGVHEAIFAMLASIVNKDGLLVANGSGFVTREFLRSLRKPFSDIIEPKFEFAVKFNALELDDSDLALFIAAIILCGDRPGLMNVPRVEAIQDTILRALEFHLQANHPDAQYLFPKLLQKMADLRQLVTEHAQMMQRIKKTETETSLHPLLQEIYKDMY

Structure (SMILES): CCCCCCCC(OCC(=O)O)c1ccc(Cl)cc1 (centres unmarked) [VSP-77]
- agonistic activity (fold activation of luciferase reporter) [1]: weakly agonistic
- adipogenesis (in words) ([2]; 100 μM): does not activate adipogenesis
- total number of adipocytes when added to DMI- or Rosi-treated cells ([2]; VSP-77 100 μM): clear decrease
- % Area stained by Oil Red O ([2]; VSP-77 100 μM, 2 days): 0%
- effect on PPARδ (in words) [3]: no obvious effects
